How the values were obtained:
[1] = test system: mice; experiment: synergism of acute toxicity of Dimetilan, GS 13005, Secobarbital and Methadone (intraperitoneal); type: in vivo, Swiss albino white male mice; details: 48 hours
Procedure: The synergism of the acute toxicity of Dimetilan by various synergists was determined by tests on Swiss albino, white male mice aged 5 to 6 weeks and weighing 23 to 27 grams. The synergists and insecticides were dissolved in corn oil and the drugs were dissolved in distilled water. All compounds were administered intraperitoneally by injection in the lower quadrent of the abdomen. The synergist was administered in 0.1 ml of corn oil 1 hour prior to administration of the insecticide. Eight mice were treated, per dosage, with each synergist. The mice were watched for a minimum of 6 hours while held in a glass jar with bedding individually after intraperitoneal injection of the test solutions. Lethality was noted, the animals were weighed and transferred in cages, and food and water were supplied. Control mice were given 0.1 ml of corn oil at the time of administration of the synergist to the test mice and 0.1 ml corn oil plus Dimetilan at the time of administration of the insecticide to the test mice.
By the same procedure, the synergism of acute toxicity of GS 13005, Secobarbital and 6-dimethylamino-4,4-diphenyl-3-heptanone [Methadone] was determined.

[2] = test system: polyvalent resistant (CH strain) houseflies; experiment: whole plant or invertebrate; type: in vivo, housefly (CH strain); details: Musca domestica, topical, 24 h, read-out: mortality, insecticide used without synergist
Procedure: The effect of O-(2-propynyl) oximes with Dimetilan and with GS 13798 was obtained from tests on polyvalent resistant (CH strain) houseflies that had been chilled and to the dorsal region of which was applied an acetone solution of synergist and insecticide at a ratio of two to one. Duplicate tests were performed using 10 four to five-day old female houseflies per test. After dosage, the flies were put in a plastic petri dish with cotton soaked in a sugar-water solution. These doses of insecticide used without synergist caused 10-40% mortality.
(§1) In Table IX, and in the tables following it, the doses of topically applied insecticides and of synergists unless otherwise noted are expressed as micrograms per fly (μg/fly).
The effect of compounds II-C, II-D and II-E with Dimetilan and GS 13798 was determined, following the procedure of Example 5, from tests on polyvalent resistant (CH strain) houseflies. These doses of insecticide used without synergist caused 10-40% mortality.
(§2) The synergistic effect with GS 13005 of compounds I-A, I-B, I-D, I-E, I-F, I-G and I-I was determined from topical application tests to IN/WHO strain, Rutgers A strain and polyvalent CH strain houseflies using the procedures of Example 5. The percent kills of the IN/WHO strain flies after 24 hours are shown in Table XXVIII; of the Rutgers A strain, in Table XXIX; and of the polyvalent CH strain, in Table XXX. The doses of insecticide alone to the CH strain files caused 10-40% mortality.
(§3) The synergistic effect with Diazinon and GS 13005 of various of the benzyl 2-propynyl ethers identified in Tables II and IIa was determined by topical application tests on IN/WHO strain, and Rutgers A strain and polyvalent, resistant, CH strain houseflies using the procedures of Example 5. The percent kills after 24 hours of IN/WHO strain flies are shown in Table XXXI; of Rutgers A strain flies, in Table XXXII; and of CH strain flies, in Table XXXIII. The doses of insecticide alone to the CH strain flies caused 10-40% mortality.
The synergistic effect with pyrethrum of various synergist compounds was determined by topical application tests on polyvalent, resistant CH strain houseflies following the procedure of Example 5. Application of the insecticide alone caused 10-40% mortality.

[3] = test system: mice; experiment: acute toxicity of Dimetilan alone and of synergist alone (intraperitoneal); type: in vivo, Swiss albino white male mice; details: for Lethality (number of mice dead): 48 hours, of eight mice
Procedure: To determine the acute toxicity of dimetilan alone, eight dosage levels of Dimetilan, ranging from 4 to 32 mg per kg wer applied to eight, Swiss, albino, white, male mice per dosage level. The mice weighed approximately 23 to 27 grams and were five to size weeks old. The Dimetilan was administered intraperitoneally in 0.1 ml of corn oil one hour after the administration of the same dose of corn oil alone.
To determine the acute toxicity of the synergist alone, various synergists were administered intraperitoneally at a dose of 1000 mg/kg to each of a group of eight mice. The number of animals dead at the end of 72 hours is reported in the left hand column of Table XXXXVI.

[4] = test system: IN/WHO strain house flies; experiment: topical application test, percent kill after 24 hours, IN/WHO strain; type: in vivo, house fly (susceptible IN/WHO strain)
Procedure: as §1
The synergistic effect of O-(2-propynyl) oximes with mobam was determined from topical application tests on susceptible, female, IN/WHO strain house flies and from tests on resistant, female, Rutgers A strain house flies. The synergist and insecticide were dissolved in ACS Grade acetone in such quantities that a 1.0μ liter volume applied to the thorax of 3-to-5 day old CO2 -anesthetized female adult house flies contained the desired dosage. After being treated, the flies were confined, 10 to a plaster petri dish, with 3-5 dishes/treatment, and held for 24-hr. observation of mortality. Reconstituted skim milk on cotton dental wicks was provided during the holding period. The percent kills after 24 hours are shown in Table X for the IN/WHO strain and Table XI for the Rutgers A strain.
The synergistic effect of benzyl 2-propynyl ethers with mobam was determined from topical application tests on IN/WHO and Rutgers A strain houseflies, following the procedure of Example 5. The percent kills after 24 hours are shown in Table XIV for the IN/WHO strain and in Table XV for the Rutgers A strain.
The effects of varying the insecticide dose and the synergist-insecticide ratio are further illustrated, with synergist compounds II-D, II-E, II-F and Mobam insecticide, in Tables XVI, XVII and XVIII.
The synergistic effect on IN/WHO flies of synergist compound II-K with Dimetilan, pyrolan, Baygon and HRS 1422 is illustrated by the 24 hour percent mortality data in Tables XIX, XX and XXI.
The effect on IN/WHO flies of synergist compound IV-C, identified in Table IV, with mobam was determined by the topical application procedure of Example 5.
The synergistic effect with Diazinon of compounds I-B, I-D, I-F, I-G, I-H and I-I, identified in Tables I and Ia, was determined from topical application tests on IN/WHO strain houseflies and on Rutgers A strain houseflies by the procedure of Example 5. The percent kills after 24 hours are shown in Table XXV for the IN/WHO strain and Table XXVI for the Rutgers A strain.
as §2, §3
The synergist effect on IN/WHO flies of synergist compound II-K with Gardona and Bidrin is illustrated by the 24 hour percent mortality data in Tables XXXIV and XXXV.
The synergistic effect on IN/WHO strain flies and Rutgers A strain flies of compound IV-C with GS 13005 and with Diazinon was determined by the topical application procedure of Example 5. The percent kills of IN/WHO strain flies after 24 hours are shown in Tables XXXVI and XXXVII; the percent kills of Rutgers A strain flies are shown in Tables XXXVIII and XXXIX.

[5] = test system: Wilson strain house flies; type: in vivo, house fly (susceptible Wilson strain)
Procedure: The required solutions of the insecticide and of the synergist compound were prepared in acetone at a concentration of one milligram per milliliter. One-pint wide mouth glass jars were coated wiith the appropriate insecticide-synergist combination by rolling the jars containing aliquots of the appropriate solutions diluted to three milliliters with acetone to deposit, by evaporation, a film of the test materials. The flies were transferred under carbon dioxide anesthesia and held in the jar at room temperature. Perforated aluminum foil was used to cover the jars and to hold cotton saturated with 10% sugar solution. Counts were made at intervals, but the recorded mortality was based on 24-hour kill, rather than knockdown. All prostrate nonmoving flies were considered dead. A determination was then made of the contact synergistic ratio [SR], which is the ratio of the LC50 of insecticide alone to the LC50 of the insecticide when applied together with the synergist. The LC50 of the insecticide was estimated from a log-probit plot of percent kill versus dosage. […] The LC50 of the combination of insecticide and synergist was determined at a synergist to insecticide parts by weight ratio of five to one.

[6] = test system: mice; experiment: extension of Noludar sleeping time by synergists; type: in vivo, Swiss albino white male mice; details: Noludar 110 mg/K, synergist 110 mg/K; for Relative Sleeping Time: treated/control
Procedure: (§4) The selectivity of the synergist compounds of this invention is illustrated by the results of sleeping-time extension tests and of acute toxicity tests on Swiss albino white male mice.
(§5) The effect of various synergist compounds on sleeping time of sodium secobarbital [Secobarbital] and of 3,3-diethyl-5-methyl-2,4-dioxypiperidine [Noludar] was determined by administering the drug, with and without synergist, to approximately 38-day old male mice weighing from 25 to 30 grams. Synergists were administered in each of two doses, 74.0 mg/kg (dilution being 2.0 mg/0.1 ml corn oil), and 110.0 mg/kg (dilution 3.0 mg/0.1 ml oil). Secobarbital was administered at a dose of 37.0 mg/kg (dilution 1.0 mg/0.1 ml water). Noludar was administered at a dose of 110.0 mg/kg (dilution 3.0 mg/0.1 ml water). The synergist was administered one hour prior to administration of the Secobarbital or Noludar. Secobarbital and Noludar sleeping times were obtained for both the control (drug only) and the treated (synergist plus drug) mice by noting the time lapse between the administration of the drug and the recovery of the righting reflex, i.e. when the animal regains conciousness and can walk up an inclined wooden tray with coordination. The relative sleeping time (R.S.) was noted. The R.S. is the extended sleeping time in the treated mice (synergist plus drug) divided by the sleeping time in the control mice (drug only). The mean sleeping time for the treated mice and the R.S. are shown on Table XXXXIV for various synergist compounds.

[7] = test system: mice; experiment: extension of Secobarbital sleeping time by synergists; type: in vivo, Swiss albino white male mice; details: Secobarbital 37 mg/K; for Relative Sleeping Time: treated/control
Procedure: as §4, §5

[8] = test system: German male cockroaches (Blatella Germanicus); experiment: topical application to thorax, 24 hour mortality of German male cockroaches; type: in vivo, German cockroach (Blatella Germanicus)
Procedure: The synergistic effect with mobam of synergist compounds I-B, II-H, II-K and IV-C is further illustrated by the 24 hour mortality data of German male cockroaches (Blatella Germanicus) shown in Table XXXX. The synergists and insecticide were diluted in acetone and applied in small droplets to the thorax of the insect. These doses of synergist alone gave zero percent insect mortality.
The synergistic effect with GS 13005 of compounds I-B, II-H, II-K, II-P, II-Q, II-R and IV-C is illustrated by the 24 hour mortality of German male cockroaches shown in Table XXXXI. These doses of synergist alone caused zero percent insect mortality.

[9] = Dimetilan 8 mg/kg + synergist 80 mg/kg ip, of eight mice
[10] = Dimetilan 8 mg/kg + synergist 240 mg/kg ip, of eight mice
[11] = synergist alone at doses of Table XXXX
[12] = synergist alone at doses of Table XXXXI

Compound | number of mice dead [1, 9] | number of mice dead [1, 10] | Mean Sleeping Time [6] [min] | Relative Sleeping Time [6] | Mean Sleeping Time ([7]; synergist 74 mg/K) [min] | Relative Sleeping Time ([7]; synergist 74 mg/K) | Mean Sleeping Time ([7]; synergist 110 mg/K) [min] | Relative Sleeping Time ([7]; synergist 110 mg/K) | insect mortality, synergist alone [8, 11] | insect mortality, synergist alone [8, 12] | further results
Cc1cc(OC(=O)N(C)C)nn1C(=O)N(C)C [Dimetilan, 1-(dimethylcarbamoyl)-5-methyl-3-pyrazolyl dimethylcarbamate] |  |  |  |  |  |  |  |  |  |  | number of mice dead ([1]; control: Dimetilan 8 mg/kg with 0.1 ml oil, 80 mg/kg): 0; number of mice dead ([1]; control: Dimetilan 8 mg/kg with 0.1 ml oil, 240 mg/kg): 0; mortality at 2 µg/fly [2]: 10 to 40%; Lethality (number of mice dead) ([3]; Dimetilan alone 4.0 mg/kg ip): 0; Lethality (number of mice dead) ([3]; Dimetilan alone 8.0 mg/kg ip): 0; Lethality (number of mice dead) ([3]; Dimetilan alone 12.0 mg/kg ip): 1; Lethality (number of mice dead) ([3]; Dimetilan alone 16.0 mg/kg ip): 3; Lethality (number of mice dead) ([3]; Dimetilan alone 20.0 mg/kg ip): 4; Lethality (number of mice dead) ([3]; Dimetilan alone 24.0 mg/kg ip): 7; Lethality (number of mice dead) ([3]; Dimetilan alone 28.0 mg/kg ip): 8; Lethality (number of mice dead) ([3]; Dimetilan alone 32.0 mg/kg ip): 8; dose level just below that at which Dimetilan alone showed lethality ([3]; mice, ip): 8 mg/kg; 24 hour percent mortality ([4]; Dimetilan alone 0.031 μg/fly): 0%; 24 hour percent mortality ([4]; Dimetilan alone 0.063 μg/fly): 17%; 24 hour percent mortality ([4]; Dimetilan alone 0.13 μg/fly): 43%; 24 hour percent mortality ([4]; Dimetilan alone 0.25 μg/fly): 100%
C#CCON=Cc1cccc([N+](=O)[O-])c1 [I-B] | 1 | 6 | 70 | 2.4 | 54 | 1.5 | 106 | 1.7 | zero | zero | Contact Synergistic Ratio, Carbaryl (LC50 insecticide alone / LC50 with synergist) ([5]; in vivo): 270; Contact Synergistic Ratio, Pyrolan (LC50 insecticide alone / LC50 with synergist) ([5]; pyrolan, synergist to insecticide 5:1 by weight, 24 h): 35
C#CCOCc1cccc2ccccc12 [II-R, α-naphthylmethyl 2-propynyl ether] | 0 | 2 | 49 | 1.7 | 35 | 1.2 | 96 | 1.6 |  | zero | 
C#CCOC(c1ccc(Cl)cc1)C(C)[N+](=O)[O-] (stereo not drawn) [IV-C] | 5 | 7 | 74 | 2.5 | 112 | 4.7 |  |  | zero | zero | 
